# Key:
# Assay in all cases: relative viability (nuclei count vs DMSO), 5 days (fraction); higher = more cells survive
# H3255 = tested on: H3255
# Summary of the method: (§1)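 Each reported value is a median over duplicate plates. It expresses relative viability: treated-well nuclei count divided by vehicle-well nuclei count. Lung cancer cell lines in 1536-well plates were dosed by pin tool a day after seeding, alone with one drug or with a fixed anchor-drug dose plus five library-drug doses (not always all listed) in √10 steps, and nuclei were counted after 5 days.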
# RERF-LC-KJ = tested on: RERF-LC-KJ
# Summary of the method: as §1
# HCC-44 = tested on: HCC-44
# Summary of the method: as §1
# NCI-H520 = tested on: NCI-H520
# Summary of the method: as §1
# NCI-H2085 = tested on: NCI-H2085
# Summary of the method: as §1
# NCI-H441 = tested on: NCI-H441
# Summary of the method: as §1
# NCI-H1993 = tested on: NCI-H1993
# Summary of the method: as §1
# PC-14 = tested on: PC-14
# Summary of the method: as §1
# LOU-NH91 = tested on: LOU-NH91
# Summary of the method: as §1
# 201T = tested on: 201T
# Summary of the method: as §1
# NCI-H2405 = tested on: NCI-H2405
# Summary of the method: as §1
# NCI-H2347 = tested on: NCI-H2347
# Summary of the method: as §1
# NCI-H647 = tested on: NCI-H647
# Summary of the method: as §1
# NCI-H3122 = tested on: NCI-H3122
# Summary of the method: as §1
# NCI-H2170 = tested on: NCI-H2170
# Summary of the method: as §1
# NCI-H1563 = tested on: NCI-H1563
# Summary of the method: as §1
# NCI-H2023 = tested on: NCI-H2023
# Summary of the method: as §1
# NCI-H1734 = tested on: NCI-H1734
# Summary of the method: as §1
# EPLC-272H = tested on: EPLC-272H
# Summary of the method: as §1
# COR-L23 = tested on: COR-L23
# Summary of the method: as §1
# NCI-H1650 = tested on: NCI-H1650
# Summary of the method: as §1
# NCI-H1793 = tested on: NCI-H1793
# Summary of the method: as §1
smiles,measurement,setting,value
NC(=O)Nc1cc(-c2cccc(F)c2)sc1C(=O)N[C@H]1CCCNC1 [AZD7762] + CS(=O)(=O)N1CCN(Cc2cc3nc(-c4cccc5[nH]ncc45)nc(N4CCOCC4)c3s2)CC1 [Pictilisib] (partner 1 µM),relative viability,H3255; first compound 0.01 µM,0.527
same,relative viability,H3255; first compound 0.03162 µM,0.448
same,relative viability,H3255; first compound 0.1 µM,0.519
same,relative viability,H3255; first compound 0.3162 µM,0.514
same,relative viability,H3255; first compound 1 µM,0.418
same,relative viability,RERF-LC-KJ; first compound 0.01 µM,0.521
same,relative viability,RERF-LC-KJ; first compound 0.03162 µM,0.616
same,relative viability,RERF-LC-KJ; first compound 0.1 µM,0.521
same,relative viability,RERF-LC-KJ; first compound 0.3162 µM,0.6
same,relative viability,RERF-LC-KJ; first compound 1 µM,0.431
same,relative viability,HCC-44; first compound 0.01 µM,0.642
same,relative viability,HCC-44; first compound 0.03162 µM,0.627
same,relative viability,HCC-44; first compound 0.1 µM,0.584
same,relative viability,HCC-44; first compound 0.3162 µM,0.612
same,relative viability,HCC-44; first compound 1 µM,0.556
same,relative viability,NCI-H520; first compound 0.01 µM,0.328
same,relative viability,NCI-H520; first compound 0.03162 µM,0.28
same,relative viability,NCI-H520; first compound 0.1 µM,0.253
same,relative viability,NCI-H520; first compound 0.3162 µM,0.216
same,relative viability,NCI-H520; first compound 1 µM,0.219
same,relative viability,NCI-H2085; first compound 0.01 µM,0.407
same,relative viability,NCI-H2085; first compound 0.03162 µM,0.507
same,relative viability,NCI-H2085; first compound 0.1 µM,0.486
same,relative viability,NCI-H2085; first compound 0.3162 µM,0.516
same,relative viability,NCI-H2085; first compound 1 µM,0.361
same,relative viability,NCI-H441; first compound 0.01 µM,0.494
same,relative viability,NCI-H441; first compound 0.03162 µM,0.594
same,relative viability,NCI-H441; first compound 0.1 µM,0.7
same,relative viability,NCI-H441; first compound 0.3162 µM,0.556
same,relative viability,NCI-H441; first compound 1 µM,0.555
same,relative viability,NCI-H1993; first compound 0.01 µM,0.823
same,relative viability,NCI-H1993; first compound 0.03162 µM,0.925
same,relative viability,NCI-H1993; first compound 0.1 µM,0.717
same,relative viability,NCI-H1993; first compound 0.3162 µM,0.725
same,relative viability,NCI-H1993; first compound 1 µM,0.704
same,relative viability,PC-14; first compound 0.01 µM,0.763
same,relative viability,PC-14; first compound 0.03162 µM,0.795
same,relative viability,PC-14; first compound 0.1 µM,0.67
same,relative viability,PC-14; first compound 0.3162 µM,0.474
same,relative viability,PC-14; first compound 1 µM,0.309
same,relative viability,LOU-NH91; first compound 0.01 µM,0.546
same,relative viability,LOU-NH91; first compound 0.03162 µM,0.555
same,relative viability,LOU-NH91; first compound 0.1 µM,0.473
same,relative viability,LOU-NH91; first compound 0.3162 µM,0.489
same,relative viability,LOU-NH91; first compound 1 µM,0.595
same,relative viability,201T; first compound 0.01 µM,0.707
same,relative viability,201T; first compound 0.03162 µM,0.689
same,relative viability,201T; first compound 0.1 µM,0.668
same,relative viability,201T; first compound 0.3162 µM,0.65
same,relative viability,201T; first compound 1 µM,0.738
same,relative viability,NCI-H2405; first compound 0.01 µM,0.457
same,relative viability,NCI-H2405; first compound 0.03162 µM,0.559
same,relative viability,NCI-H2405; first compound 0.1 µM,0.382
same,relative viability,NCI-H2405; first compound 0.3162 µM,0.291
same,relative viability,NCI-H2405; first compound 1 µM,0.22
same,relative viability,NCI-H2347; first compound 0.01 µM,0.598
same,relative viability,NCI-H2347; first compound 0.03162 µM,0.721
same,relative viability,NCI-H2347; first compound 0.1 µM,0.623
same,relative viability,NCI-H2347; first compound 0.3162 µM,0.788
same,relative viability,NCI-H2347; first compound 1 µM,0.292
same,relative viability,NCI-H647; first compound 0.03162 µM,0.559
same,relative viability,NCI-H647; first compound 0.1 µM,0.427
same,relative viability,NCI-H647; first compound 0.3162 µM,0.375
same,relative viability,NCI-H647; first compound 1 µM,0.16
same,relative viability,NCI-H3122; first compound 0.01 µM,0.623
same,relative viability,NCI-H3122; first compound 0.03162 µM,0.646
same,relative viability,NCI-H3122; first compound 0.1 µM,0.638
same,relative viability,NCI-H3122; first compound 0.3162 µM,0.333
same,relative viability,NCI-H3122; first compound 1 µM,0.332
same,relative viability,NCI-H2170; first compound 0.01 µM,0.322
same,relative viability,NCI-H2170; first compound 0.03162 µM,0.338
same,relative viability,NCI-H2170; first compound 0.1 µM,0.326
same,relative viability,NCI-H2170; first compound 0.3162 µM,0.292
same,relative viability,NCI-H2170; first compound 1 µM,0.247
same,relative viability,NCI-H1563; first compound 0.01 µM,0.648
same,relative viability,NCI-H1563; first compound 0.03162 µM,0.629
same,relative viability,NCI-H1563; first compound 0.1 µM,0.539
same,relative viability,NCI-H1563; first compound 0.3162 µM,0.617
same,relative viability,NCI-H1563; first compound 1 µM,0.623
same,relative viability,NCI-H2023; first compound 0.01 µM,0.228
same,relative viability,NCI-H2023; first compound 0.03162 µM,0.227
same,relative viability,NCI-H2023; first compound 0.1 µM,0.176
same,relative viability,NCI-H2023; first compound 0.3162 µM,0.11
same,relative viability,NCI-H2023; first compound 1 µM,0.091
same,relative viability,NCI-H1734; first compound 0.01 µM,0.538
same,relative viability,NCI-H1734; first compound 0.03162 µM,0.535
same,relative viability,NCI-H1734; first compound 0.1 µM,0.524
same,relative viability,NCI-H1734; first compound 0.3162 µM,0.384
same,relative viability,NCI-H1734; first compound 1 µM,0.293
same,relative viability,EPLC-272H; first compound 0.01 µM,0.309
same,relative viability,EPLC-272H; first compound 0.03162 µM,0.377
same,relative viability,EPLC-272H; first compound 0.1 µM,0.291
same,relative viability,EPLC-272H; first compound 0.3162 µM,0.316
same,relative viability,EPLC-272H; first compound 1 µM,0.247
same,relative viability,COR-L23; first compound 0.01 µM,0.743
same,relative viability,COR-L23; first compound 0.03162 µM,0.86
same,relative viability,COR-L23; first compound 0.1 µM,0.818
same,relative viability,COR-L23; first compound 0.3162 µM,0.68
same,relative viability,COR-L23; first compound 1 µM,0.288
same,relative viability,NCI-H1650; first compound 0.01 µM,0.62
same,relative viability,NCI-H1650; first compound 0.03162 µM,0.657
same,relative viability,NCI-H1650; first compound 0.1 µM,0.515
same,relative viability,NCI-H1650; first compound 0.3162 µM,0.391
same,relative viability,NCI-H1650; first compound 1 µM,0.155
same,relative viability,NCI-H1793; first compound 0.01 µM,0.388
same,relative viability,NCI-H1793; first compound 0.03162 µM,0.371
same,relative viability,NCI-H1793; first compound 0.1 µM,0.336
same,relative viability,NCI-H1793; first compound 0.3162 µM,0.278
same,relative viability,NCI-H1793; first compound 1 µM,0.224

# — the supplement of paper PMC10307832
